What was measured:
BEAS-2B = experiment: Cell toxicity of H2O2 after EP pre-treatment (WST-8 assay); assay type: cell-based, human
Experimental: Cells of the normal airway epithelial cell line BEAS-2B were seeded at a density of 1×10^5/cm^2 on a 96-well plate, and after 24 hours the medium was replaced with 0.5% FBS RPMI 1640 containing EP at final concentrations of 0, 250 and 500 μM. 24 hours after medium replacement the medium was replaced with 0.5% FBS RPMI-1640, and serially diluted H2O2 was administered (n=4). 24 hours after H2O2 administration a cell toxicity test WST-8 assay (Cell Counting Kit-8, Dojindo) was performed. For the data analysis, the 50% cell death concentration EC50 was calculated with GraphPad Prism 5 statistical analysis software.

caspase 3/7 = experiment: Serum-free stress-induced caspase 3/7 activity (Caspase-Glo3/7 assay) per cell; assay type: cell-based, human; settings: 0% FBS, 24 hours
Experimental: After medium replacement, 10 μl per well of EP or FBS solution was added. After 24 hours, a proliferation test (WST-8 assay) and caspase 3/7 assay (Caspase-Glo3/7 assay, Promega) were performed. […] Caspase 3/7 activity was measured by a luminescence test, the blank average was subtracted, and this was divided by the corrected absorbance (corresponding to relative cell number) from the WST-8 assay to calculate the caspase 3/7 activity per cell.

With NCCOP(=O)(O)O [EP, Ethanolamine phosphate] the “Toxity reduction rate % (H2O2 cytotoxicity)” value (BEAS-2B; EP pre-treatment 250 uM) was 33%, the “Toxity reduction rate % (H2O2 cytotoxicity)” value (BEAS-2B; EP pre-treatment 500 uM) was 28% and the “reduction of the cytotoxicity of H2O2” value (BEAS-2B; pre-treatment with 250 to 500 μM of EP) was “about 30%”. The “FBS concentration whose effect EP 1000 μM corresponds to (regression curve)” value (caspase 3/7) was 2.2% and the “caspase 3/7 activity per cell” value (caspase 3/7; 1000 μM) was “about 0.72 fold”.

Source: patent US20150164762A1, “USE OF ETHANOLAMINE PHOSPHATE” (priority 2012, published 2015)
